These results are taken from patent US20050107289A1, “Anti-microbial peptides and compositions” (priority 2001, published 2005).

One series has as its system murine red blood cells. The experiment in a line: Red blood cell hemolysis. In kind it is cell-based, mouse. The method, boiled down:
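Hemolysis read as A560 of supernatant, scaled between saline (0%) and 1% Triton X-100 (100%) controls; peptides were serially diluted onto 5% murine red cells in saline plus 10% FBS and incubated 30 min at 37° C.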

Series [1] has as its system vancomycin-resistant Enterococus faecalis (VRE)(ATCC 51575). The series is classed as cell-based, Enterococcus faecalis. As to conditions: Table 9. Set-up: key to VRE (in vitro activity): peptide concentration in μg/ml (broth dilution assay). The method, boiled down: (§1)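 Broth microdilution (macrodilution in some cases) per NCCLS M7-A4; peptides 2-fold serially diluted in 5% DMSO/9% sucrose, ~400-2 μg/ml before dilution into broth; inoculum ~2.5×10^5 cfu/ml from overnight culture diluted 4000×.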

Series [2] relates to S. aureus (MRSA) ATCC 33591. In kind it is cell-based, Staphylococcus aureus. Conditions: Table 9. The method, boiled down:
as §1

[3] abbreviates: media b: cation adjusted Meuller Hinton broth (MHBII).
Where [4] appears, read: media c: Brain Heart Infusion (BHI).
Setting [5] is: media a: anti-microbial media-3 (AM-3).

Where two headings read alike, the source gives them in different places. Non-standard residues stand in square brackets, D forms with d. Residues, ends and D or L forms follow the SMILES beside them.

Take `CC(C)C[C@@H]1NC(=O)[C@@H](Cc2c[nH]c3ccccc23)NC(=O)[C@H](Cc2c[nH]c3ccccc23)NC(=O)[C@@H](CCCNC(=N)N)NC(=O)[C@H](CCC(N)=O)NC(=O)[C@@H](CCCNC(=N)N)NC(=O)[C@H](Cc2c[nH]c3ccccc23)NC(=O)[C@@H](Cc2c[nH]c3ccccc23)NC1=O` [SEQ ID NO:71, [QRWWLWWR]] (cyclo(Q[dR]W[dW]L[dW]W[dR])): the “RBC Hemolysis (HD50)” value with murine red blood cells worked out at 35. Also, the “VRE (in vitro activity)” value in series [1] (media b: MHBII) amounted to 6.3. Besides, in series [2] (setting [3]), the “MRSA (in vitro activity)” value is on record as 6.3.
`CC(C)C[C@H]1NC(=O)[C@H](Cc2ccccc2)NC(=O)[C@@H](CCCCN)NC(=O)[C@H](CCCCN)NC(=O)[C@@H](CO)NC(=O)[C@H](CCCCN)NC(=O)[C@@H](CC(C)C)NC(=O)[C@H](Cc2ccccc2)NC1=O` [SEQ ID NO:76, [KSKKFLFL]] (cyclo(K[dS]K[dK]F[dL]F[dL])): the “RBC Hemolysis (HD50)” value with murine red blood cells is 100. The “VRE (in vitro activity)” value in series [1] (setting [4]) turned out to be 10. For the same compound, in series [2] (setting [3]), the “MRSA (in vitro activity)” value came to 5.
With `CC(C)C[C@@H]1NC(=O)[C@@H](Cc2c[nH]c3ccccc23)NC(=O)[C@H](CCCCN)NC(=O)[C@@H](CO)NC(=O)[C@H](CCCCN)NC(=O)[C@@H](Cc2c[nH]c3ccccc23)NC1=O` [SEQ ID NO:126, [KSKWLW]] (cyclo(K[dS]K[dW]L[dW])), the “RBC Hemolysis (HD50)” value with murine red blood cells was greater than 65. Besides, the “VRE (in vitro activity)” value in series [1] (media a: AM-3) was determined as 38. In series [2] (setting [5]), the “MRSA (in vitro activity)” value is given as 19.
For `CC(C)C[C@H]1NC(=O)[C@H](CCCCN)NC(=O)[C@@H](CCCNC(=N)N)NC(=O)[C@H](CCCCN)NC(=O)[C@@H](CC(C)C)NC(=O)[C@H](Cc2ccccc2)NC(=O)[C@@H](CC(C)C)NC(=O)[C@H](Cc2ccccc2)NC1=O` [SEQ ID NO:52, [KRKLFLFL]] (cyclo(K[dR]K[dL]F[dL]F[dL])), in the series on murine red blood cells, the “RBC Hemolysis (HD50)” value was greater than 180. Also, the “VRE (in vitro activity)” value in series [1] (setting [4]) is reported as 22. Also, in series [2] (setting [3]), the “MRSA (in vitro activity)” value is given as 11.
On the same counts, the results for `C[C@H]1NC(=O)[C@H](CCCCN)NC(=O)[C@@H](CC(N)=O)NC(=O)[C@H](CCC(N)=O)NC(=O)[C@@H](C)NC(=O)[C@H](CCCCN)NC(=O)[C@@H](CC(N)=O)NC(=O)[C@H](Cc2c[nH]c3ccccc23)NC1=O` [SEQ ID NO:96, [KAQNKAWN]] (cyclo(K[dA]Q[dN]K[dA]W[dN])) are greater than 200, greater than 200 and greater than 200.
On the same counts, the results for `CC(C)C[C@H]1NC(=O)[C@H](C)NC(=O)[C@@H](CC(C)C)NC(=O)[C@H](CCCCN)NC(=O)[C@@H](Cc2c[nH]cn2)NC(=O)[C@H](CCCCN)NC(=O)[C@@H](CC(C)C)NC(=O)[C@H](Cc2c[nH]c3ccccc23)NC1=O` [SEQ ID NO:46, [KHKLALWL]] (cyclo(K[dH]K[dL]A[dL]W[dL])) are greater than 200, 50 and 25.
On the same counts, the results for `C[C@H]1NC(=O)[C@H](CCCCN)NC(=O)[C@@H](Cc2ccccc2)NC(=O)[C@H](CCC(N)=O)NC(=O)[C@@H](C)NC(=O)[C@H](CCCCN)NC(=O)[C@@H](Cc2ccccc2)NC(=O)[C@H](Cc2c[nH]c3ccccc23)NC1=O` [SEQ ID NO:97, [KAQFKAWF]] (cyclo(K[dA]Q[dF]K[dA]W[dF])) are greater than 200, 100 and 100.
For the compound `CC[C@H](C)[C@@H]1NC(=O)[C@@H](Cc2c[nH]c3ccccc23)NC(=O)[C@H](CCCCN)NC(=O)[C@@H](CCCNC(=N)N)NC(=O)[C@H](C)NC(=O)[C@@H](CC(C)C)NC1=O` [SEQ ID NO:114, [KWILAR]] (cyclo(K[dW]I[dL]A[dR])), the “RBC Hemolysis (HD50)” value in the series with murine red blood cells is greater than 200. Moreover, in series [1] (setting [4]), the “VRE (in vitro activity)” value is on record as greater than 200. Also, in series [2] (setting [3]), the “MRSA (in vitro activity)” value turned out to be 50.
Consider `CC(C)C[C@@H]1NC(=O)[C@@H](Cc2c[nH]c3ccccc23)NC(=O)[C@H](CCCCN)NC(=O)[C@@H](CO)NC(=O)[C@H](CO)NC(=O)[C@@H](CO)NC(=O)[C@H](CCCCN)NC(=O)[C@@H](Cc2c[nH]c3ccccc23)NC1=O` [SEQ ID NO:93, [KSSSKWLW]] (cyclo(K[dS]S[dS]K[dW]L[dW])), for which the “RBC Hemolysis (HD50)” value with murine red blood cells was determined as 175. For the same compound, in series [1] (setting [4]), the “VRE (in vitro activity)” value is recorded as 6. In addition, the “MRSA (in vitro activity)” value in series [2] (setting [3]) is recorded as 6.
`NCCCC[C@@H]1NC(=O)[C@@H](Cc2ccc(O)cc2)NC(=O)[C@H](CCC(N)=O)NC(=O)[C@@H](Cc2ccc(O)cc2)NC(=O)[C@H](CCCCN)NC(=O)[C@@H](CC(N)=O)NC(=O)[C@H](Cc2c[nH]c3ccccc23)NC(=O)[C@@H](CC(N)=O)NC1=O` [SEQ ID NO:94, [KYQYKNWN]] (cyclo(K[dN]W[dN]K[dY]Q[dY])): in the series with murine red blood cells, the “RBC Hemolysis (HD50)” value is recorded as greater than 200. For the same compound, the “VRE (in vitro activity)” value in series [1] (setting [4]) is on record as greater than 200. The “MRSA (in vitro activity)” value in series [2] (setting [3]) is greater than 200.
In the case of `CC(C)C[C@@H]1NC(=O)[C@@H](Cc2c[nH]c3ccccc23)NC(=O)[C@H](CCCCN)NC(=O)[C@@H](Cc2c[nH]cn2)NC(=O)[C@H](CO)NC(=O)[C@@H](Cc2c[nH]cn2)NC(=O)[C@H](CCCCN)NC(=O)[C@@H](Cc2c[nH]c3ccccc23)NC1=O` [SEQ ID NO:88, [KHSHKWLW]] (cyclo([dW]L[dW]K[dH]S[dH]K)), the “RBC Hemolysis (HD50)” value with murine red blood cells amounted to 200. Also, the “VRE (in vitro activity)” value in series [1] (setting [4]) is given as 6. Moreover, in series [2] (setting [3]), the “MRSA (in vitro activity)” value turned out to be 6.
`CC(C)C[C@H]1NC(=O)[C@H](Cc2c[nH]c3ccccc23)NC(=O)[C@@H](Cc2c[nH]c3ccccc23)NC(=O)[C@H](CCCCN)NC(=O)[C@@H](Cc2c[nH]cn2)NC(=O)[C@H](Cc2c[nH]c3ccccc23)NC(=O)[C@@H](CC(C)C)NC(=O)[C@H](Cc2c[nH]c3ccccc23)NC1=O` [SEQ ID NO:43, [KWWLWLWH]] (cyclo(K[dW]W[dL]W[dL]W[dH])): the “RBC Hemolysis (HD50)” value with murine red blood cells is listed as greater than 23. In series [1] (media a: AM-3), the “VRE (in vitro activity)” value is given as 17. For the same compound, the “MRSA (in vitro activity)” value in series [2] (setting [5]) is listed as 13.
For `CC(C)C[C@@H]1NC(=O)[C@@H](Cc2c[nH]c3ccccc23)NC(=O)[C@H](CCC(N)=O)NC(=O)[C@@H](CCC(=O)O)NC(=O)[C@H](CCCCN)NC(=O)[C@@H](Cc2c[nH]c3ccccc23)NC1=O` [SEQ ID NO:118, [KEQWLW]] (cyclo(K[dE]Q[dW]L[dW])), in the series on murine red blood cells, the “RBC Hemolysis (HD50)” value is greater than 115. In addition, the “VRE (in vitro activity)” value in series [1] (media a: AM-3) is greater than 115. Also, the “MRSA (in vitro activity)” value in series [2] (setting [5]) is greater than 115.
As to `CC(C)C[C@H]1NC(=O)[C@H](Cc2c[nH]c3ccccc23)NC(=O)[C@@H](Cc2c[nH]c3ccccc23)NC(=O)[C@H](CCCCN)NC(=O)[C@@H](CO)NC(=O)[C@H](CCCCN)NC(=O)[C@@H](CC(C)C)NC(=O)[C@H](Cc2c[nH]c3ccccc23)NC1=O` [SEQ ID NO:67, [KWWLWLKS]] (cyclo(K[dW]W[dL]W[dL]K[dS])), the “RBC Hemolysis (HD50)” value in the series with murine red blood cells is on record as greater than 153. Also, the “VRE (in vitro activity)” value in series [1] (media b: MHBII) is recorded as 10. For the same compound, the “MRSA (in vitro activity)” value in series [2] (setting [3]) is on record as 7.
Take `CC(C)C[C@@H]1NC(=O)[C@@H](Cc2c[nH]c3ccccc23)NC(=O)[C@H](CCCCN)NC(=O)[C@@H](Cc2c[nH]cn2)NC(=O)[C@H](CCCCN)NC(=O)[C@@H](Cc2c[nH]c3ccccc23)NC1=O` [SEQ ID NO:119, [KHKWLW]] (cyclo(K[dH]K[dW]L[dW])): the “RBC Hemolysis (HD50)” value with murine red blood cells is greater than 115. Moreover, the “VRE (in vitro activity)” value in series [1] (media a: AM-3) turned out to be 60. Moreover, the “MRSA (in vitro activity)” value in series [2] (setting [5]) is 12.
